The values that follow come from ChEMBL document CHEMBL3393057, “Synthesis and transmembrane anion/cation symport activity of a rigid bis(choloyl) conjugate functionalized with guanidino groups” (Bioorg Med Chem Lett, 2015).

Data set [1] in a line: Ionophoric activity across egg yolk L-alpha-phosphatidylcholine-based liposomal membrane vesicles (unknown origin) assessed as induction of pH discharge at internal pH 7 and external aqueous phase pH 8 at 3 mol% by pyranine dye-based method in presence of NaCl. To be noted: artificial membrane.
Data set [2] is described as follows: Ionophoric activity across egg yolk L-alpha-phosphatidylcholine-based liposomal membrane vesicles (unknown origin) assessed as induction of pH discharge at internal pH 7 and external aqueous phase pH 8 at 3 mol% by pyranine dye-based method in presence of NaBr. To be noted: artificial membrane.
Data set [3] can be described thus: Ionophoric activity across egg yolk L-alpha-phosphatidylcholine-based liposomal membrane vesicles (unknown origin) assessed as release of chloride ion at 5 mol% by electrode technique in presence of 500 mM RbCl. Format: ADME. The following applies: artificial membrane.
Data set [4] can be described thus: Ionophoric activity across egg yolk L-alpha-phosphatidylcholine-based liposomal membrane vesicles (unknown origin) assessed as release of chloride ion at 5 mol% by electrode technique in presence of 500 mM LiCl. In kind it is ADME. To be noted: artificial membrane.
A short description of data set [5]: Ionophoric activity across egg yolk L-alpha-phosphatidylcholine-based liposomal membrane vesicles (unknown origin) assessed as release of chloride ion after 300 seconds by electrode technique in presence of sodium nitrate in external solution. In kind it is ADME. To be noted: artificial membrane, 5 min.
The nature of data set [6]: Ionophoric activity across egg yolk L-alpha-phosphatidylcholine-based liposomal membrane vesicles (unknown origin) assessed as release of chloride ion at 5 mol% by electrode technique in presence of 500 mM CsCl. Format: ADME. The following applies: artificial membrane.
The nature of data set [7]: Ionophoric activity across egg yolk L-alpha-phosphatidylcholine-based liposomal membrane vesicles (unknown origin) assessed as release of chloride ion at 5 mol% by electrode technique in presence of 500 mM NaCl. In kind it is ADME. To be noted: artificial membrane.
Data set [8] in a line: Ionophoric activity across egg yolk L-alpha-phosphatidylcholine-based liposomal membrane vesicles (unknown origin) assessed as release of chloride ion at 5 mol% by electrode technique in presence of 500 mM KCl. In kind it is ADME. The following applies: artificial membrane.
A short description of data set [9]: Ionophoric activity across egg yolk L-alpha-phosphatidylcholine-based liposomal membrane vesicles (unknown origin) assessed as induction of pH discharge at internal pH 7 and external aqueous phase pH 8 at 3 mol% by pyranine dye-based method in presence of NaI. The following applies: artificial membrane.
Data set [10] in a line: Ionophoric activity across egg yolk L-alpha-phosphatidylcholine-based liposomal membrane vesicles (unknown origin) assessed as induction of pH discharge at internal pH 7 and external aqueous phase pH 8 at 3 mol% by pyranine dye-based method in presence of NaNO3. To be noted: artificial membrane.
Data set [11] can be described thus: Ionophoric activity across egg yolk L-alpha-phosphatidylcholine-based liposomal membrane vesicles (unknown origin) assessed as release of chloride ion after 300 seconds by electrode technique in presence of sodium sulfate in external solution. Format: ADME. To be noted: artificial membrane, 5 min.

Regarding `C[C@H](CCC(=O)NC(CCCNC(=N)N)C(=O)NCc1ccc(CNC(=O)C(CCCNC(=N)N)NC(=O)CC[C@@H](C)[C@@H]2CC[C@@H]3[C@@H]4[C@@H](C[C@@H](O)[C@]32C)[C@]2(C)CC[C@H](O)C[C@@H]2C[C@@H]4O)cc1)[C@H]1CC[C@H]2[C@@H]3[C@H](O)C[C@@H]4C[C@H](O)CC[C@]4(C)[C@H]3C[C@H](O)[C@]12C` (stereo partly specified), the Activity result is “Active” in [1]; “Active” in data set [2]; “Active” in [3]; “Active” in [4]; “Dose-dependent effect” in data set [5]; “Active” in data set [6]. Moreover, the outcome in data set [7], in data set [8], in data set [9], in data set [10] and in data set [11] was Active.
